Results published in paper PMC8296573, “Synthesis and Biological Evaluation of Fingolimod Derivatives as Antibacterial Agents” (ACS Omega, 2021).
Values after ≈ are worked out from the molar mass of the structure shown. Like-named read-outs stand apart in the source and are kept apart here.

Experiments:
[1] = test system: A. baumannii NCTC 13423; assay: Antibacterial activity, pre-exposure; type: cell-based, Acinetobacter baumannii; details: for Average inhibition %, biofilms viability / Average inhibition %, planktonic cells viability / inhibition at 10 µM / inhibition at 15 µM / inhibition at 25 µM / inhibition at 50 µM: A. baumannii NCTC 13423, pre-exposure, ± SD; for inhibition at 10 µM / inhibition at 15 µM / inhibition at 25 µM / inhibition at 50 µM: Acinetobacter baumannii, NCTC13423
Description: (§1) The antimicrobial activity was assessed in a similar way for the initial screening and the dose–response evaluation against different bacterial strains. With the exception of the post-exposure experiment, the compounds were added to the wells along with the bacteria to test the ability of compounds to prevent bacterial growth and biofilm formation (pre-exposure). The compounds were diluted in DMSO and plated directly in 96-well plates before adding the bacterial culture, and plates were incubated for 18 h under aerobic conditions at 37 °C with shaking (220 rpm). The antibacterial activity of the compounds was assessed on planktonic cells and biofilms separately using two different measurements for each: optical density (turbidity) and resazurin reduction (viability) on planktonic cells and resazurin followed by a crystal violet staining assay (total biomass) on biofilms, as described in the following sections.
(§2) The resazurin staining was performed according to the protocol previously optimized with a few modifications.[46] Briefly, the planktonic solution was first transferred into a new 96-well plate and the OD of the planktonic solution was measured using a Varioskan LUX Multimode microplate reader (Thermo Scientific, Vantaa, Finland). Then, 10 μL of a 400 μM resazurin (R7017, Sigma-Aldrich, St. Louis, MO) diluted in phosphate-buffered saline (PBS) (Thermo Fisher Scientific, MA) was added to the wells (for a final resazurin concentration of 20 μM). The plate was incubated in the dark with shaking (220 rpm) for about 3–10 min at room temperature with S. aureus and A. baumannii (until the bacteria controls turned pink) or for 20 min at 37 °C with P. aeruginosa. Fluorescence was measured at λex = 560 nm and λem = 590 nm using the top optics of the Varioskan LUX Multimode microplate reader. The planktonic plate was then discarded. The original challenge plate containing the biofilms was washed once with PBS, and 200 μL of a 20 μM resazurin solution was added to the wells. The plate was incubated in the dark at 37 °C with shaking (220 rpm) for 30 min with S. aureus, 60 min with A. baumannii, and 90 min with P. aeruginosa. Fluorescence was measured as described for the planktonic solution. The biofilms were next treated with crystal violet staining.
(§3) After removing the resazurin solution from the plate, biofilms were fixed with ethanol 100% for 15 min at room temperature. Ethanol was then removed, and the biofilms were left to air-dry completely at RT. Crystal violet, diluted to 1:100 in deionized water from the 2.3% commercial solution (HT90132, Sigma-Aldrich, St. Louis, MO), was added to the wells and, after a 5 min incubation with the dye, the biofilms were washed twice with deionized water and left to air-dry for about 10 min. The dye was solubilized in ethanol 100% for 1 h, and absorbance was measured at 595 nm using a Multiskan Sky microplate spectrophotometer (Thermo Scientific, Vantaa, Finland).

[2] = test system: S. aureus ATCC 25923; assay: Antibacterial activity, pre-exposure (planktonic cells and biofilm formation); type: cell-based, Staphylococcus aureus; details: for MIC / inhibition at 5 µM / inhibition at 10 µM / inhibition at 15 µM / inhibition at 25 µM: Staphylococcus aureus, ATCC25923; for inhibition at 5 µM / inhibition at 10 µM / inhibition at 15 µM / inhibition at 25 µM / Average inhibition %, biofilms viability / Average inhibition %, planktonic cells viability: pre-exposure, ± SD
Summary of the method: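 For planktonic resazurin, 20 μM final was used: 3–10 min at RT for S. aureus and A. baumannii, 20 min at 37 °C for P. aeruginosa. Cultures had been co-incubated with compound for 18 h at 37 °C, 220 rpm. Biofilms were then assessed by resazurin and crystal violet.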

[3] = test system: S. aureus ATCC 25923; assay: Antibacterial activity, post-exposure on preformed 18-h-old biofilms; type: cell-based, Staphylococcus aureus; details: ± SD; for inhibition at 25 µM / inhibition at 50 µM / inhibition at 100 µM / inhibition at 200 µM: Staphylococcus aureus; for inhibition at 25 µM: ATCC25923, 25 µM; for inhibition at 50 µM: ATCC25923, 50 µM; for inhibition at 100 µM: ATCC25923, 100 µM; for inhibition at 200 µM: ATCC25923, 200 µM
Description: For the post-exposure experiment, bacteria were grown with no compounds in the same conditions for 18 h, after which the media was changed, and compounds were added on the preformed biofilms. The plates were then incubated in the same conditions for an additional 24 h before proceeding to the staining assays.
as §2, §3

[4] = test system: P. aeruginosa ATCC 9027; assay: Antibacterial activity, pre-exposure; type: cell-based, Pseudomonas aeruginosa; details: for Average inhibition %, biofilms viability / Average inhibition %, planktonic cells viability / inhibition at 50 µM / inhibition at 100 µM / inhibition at 150 µM / inhibition at 200 µM: P. aeruginosa ATCC 9027, pre-exposure, ± SD; for inhibition at 50 µM / inhibition at 100 µM / inhibition at 150 µM / inhibition at 200 µM: Pseudomonas aeruginosa, ATCC9027
Description: as §1, §2, §3

[5] = 10 µM, read-out: Average inhibition %, biofilms biomass
[6] = 10 µM, read-out: Average inhibition %, planktonic cells turbidity
[7] = 15 µM, read-out: Average inhibition %, biofilms biomass
[8] = 15 µM, read-out: Average inhibition %, planktonic cells turbidity
[9] = 25 µM, read-out: Average inhibition %, biofilms biomass
[10] = 25 µM, read-out: Average inhibition %, planktonic cells turbidity
[11] = 50 µM, read-out: Average inhibition %, biofilms biomass
[12] = 50 µM, read-out: Average inhibition %, planktonic cells turbidity
[13] = read-out: Average inhibition %, biofilms biomass
[14] = read-out: Average inhibition %, planktonic cells turbidity

- MIC A. baumannii NCTC 13423 ([1]; pre-exposure, Inactive = no activity up to 50 μM, > = some inhibition but no MIC reached): Inactive
- MIC ([2]; lowest concentration with no visible growth (>90% inhibition of turbidity and viability of planktonic cells), 18 h, read-out: MIC S. aureus ATCC 25923): 25 to 100 µM (≈ 8.54 to 34.1 µg/mL)
- MIC ([2]; read-out: MIC (S. aureus)): 25 to 100 µM (≈ 8.54 to 34.1 µg/mL)
- MIC P. aeruginosa ATCC 9027 ([4]; pre-exposure, Inactive = no activity up to 200 μM, > = some inhibition but no MIC reached): Inactive
SMILES: CCCCCc1ccc(-c2ccc(CCC(N)(CO)CO)cc2)cc1 [Compound 15, 2-Amino-2-[2-(4′-pentyl-[1,1′-biphenyl]-4-yl)ethyl]propane-1,3-diol]
- Average inhibition %, biofilms viability ([1]; 10 µM): 0 ± 0%
- Average inhibition %, planktonic cells viability ([1]; 10 µM): 11 ± 1.5%
- Average inhibition %, biofilms viability ([1]; 15 µM): 1 ± 1.5%
- Average inhibition %, planktonic cells viability ([1]; 15 µM): 8.7 ± 2.5%
- Average inhibition %, biofilms viability ([1]; 25 µM): 2.8 ± 2.6%
- Average inhibition %, planktonic cells viability ([1]; 25 µM): 7.8 ± 6.9%
- Average inhibition %, biofilms viability ([1]; 50 µM): 7.1 ± 0.8%
- Average inhibition %, planktonic cells viability ([1]; 50 µM): 0 ± 0%
- inhibition at 10 µM [1, 5]: 0%
- inhibition at 10 µM [1, 6]: 0%
- inhibition at 15 µM [1, 7]: 0.8 ± 1.4%
- inhibition at 15 µM [1, 8]: 0%
- inhibition at 25 µM [1, 9]: 0%
- inhibition at 25 µM [1, 10]: 0%
- inhibition at 50 µM [1, 11]: 4.8 ± 4.9%
- inhibition at 50 µM [1, 12]: 0%
- Initial screening result (active = at least 60% inhibition of planktonic cells and biofilm formation) ([2]; 50 μM, S. aureus): active
- inhibition at 5 µM ([2]; 5 µM, read-out: Average inhibition %, biofilms biomass): 44.4 ± 15%
- inhibition at 5 µM ([2]; 5 µM, read-out: Average inhibition %, planktonic cells turbidity): 44.9 ± 12.3%
- inhibition at 10 µM [2, 5]: 68.5 ± 20.6%
- inhibition at 10 µM [2, 6]: 70.3 ± 19.8%
- inhibition at 15 µM [2, 7]: 75.8 ± 18.7%
- inhibition at 15 µM [2, 8]: 72.5 ± 23.2%
- inhibition at 25 µM [2, 9]: 70.7 ± 26.8%
- inhibition at 25 µM [2, 10]: 76.5 ± 19.4%
- Average inhibition %, biofilms viability ([2]; 5 µM): 42.5 ± 7.6%
- Average inhibition %, planktonic cells viability ([2]; 5 µM): 2.6 ± 4.5%
- Average inhibition %, biofilms viability ([2]; 10 µM): 71.3 ± 19.4%
- Average inhibition %, planktonic cells viability ([2]; 10 µM): 50.9 ± 46%
- Average inhibition %, biofilms viability ([2]; 15 µM): 70.4 ± 24.5%
- Average inhibition %, planktonic cells viability ([2]; 15 µM): 33.2 ± 57.6%
- Average inhibition %, biofilms viability ([2]; 25 µM): 79.3 ± 18.7%
- Average inhibition %, planktonic cells viability ([2]; 25 µM): 33.1 ± 57.3%
- Average inhibition %, biofilms viability ([3]; 25 µM): 19 ± 6.6%
- Average inhibition %, planktonic cells viability ([3]; 25 µM): 3.6 ± 6.3%
- Average inhibition %, biofilms viability ([3]; 50 µM): 30.8 ± 8.5%
- Average inhibition %, planktonic cells viability ([3]; 50 µM): 1.2 ± 2.1%
- Average inhibition %, biofilms viability ([3]; 100 µM): 31.9 ± 6.2%
- Average inhibition %, planktonic cells viability ([3]; 100 µM): 3.8 ± 6.6%
- Average inhibition %, biofilms viability ([3]; 200 µM): 38.7 ± 13.3%
- Average inhibition %, planktonic cells viability ([3]; 200 µM): 29.1 ± 25.2%
- inhibition at 25 µM [3, 13]: 34.9 ± 12.7%
- inhibition at 25 µM [3, 14]: 16.8 ± 10%
- inhibition at 50 µM [3, 13]: 44.9 ± 6.2%
- inhibition at 50 µM [3, 14]: 14.7 ± 13.4%
- inhibition at 100 µM [3, 13]: 43.6 ± 7.8%
- inhibition at 100 µM [3, 14]: 17.9 ± 1.1%
- inhibition at 200 µM [3, 13]: 45.5 ± 18.5%
- inhibition at 200 µM [3, 14]: 47.4 ± 13.9%
- Average inhibition %, biofilms viability ([4]; 50 µM): 0 ± 0%
- Average inhibition %, planktonic cells viability ([4]; 50 µM): 22.3 ± 2%
- Average inhibition %, biofilms viability ([4]; 100 µM): 0 ± 0%
- Average inhibition %, planktonic cells viability ([4]; 100 µM): 12 ± 14%
- Average inhibition %, biofilms viability ([4]; 150 µM): 0.5 ± 0.8%
- Average inhibition %, planktonic cells viability ([4]; 150 µM): 5.5 ± 6.3%
- Average inhibition %, biofilms viability ([4]; 200 µM): 0 ± 0%
- Average inhibition %, planktonic cells viability ([4]; 200 µM): 7.2 ± 6.3%
- inhibition at 50 µM [4, 11]: 2.2 ± 2.2%
- inhibition at 50 µM [4, 12]: 12.6 ± 9.1%
- inhibition at 100 µM ([4]; 100 µM, read-out: Average inhibition %, biofilms biomass): 3.7 ± 3%
- inhibition at 100 µM ([4]; 100 µM, read-out: Average inhibition %, planktonic cells turbidity): 11.3 ± 12.7%
- inhibition at 150 µM ([4]; 150 µM, read-out: Average inhibition %, biofilms biomass): 4.4 ± 1.9%
- inhibition at 150 µM ([4]; 150 µM, read-out: Average inhibition %, planktonic cells turbidity): 15.7 ± 13.7%
- inhibition at 200 µM ([4]; 200 µM, read-out: Average inhibition %, biofilms biomass): 12 ± 10.7%
- inhibition at 200 µM ([4]; 200 µM, read-out: Average inhibition %, planktonic cells turbidity): 13.7 ± 14.3%
